# Source: patent publication US11331289B2, “Antimicrobial composition” (priority 2017, dated 2022)
# Columns and labels:
# [1] = system: Methicillin-Resistant Staphylococcus pseudintermedius (MRSP); test: Time-killing curves, conclusion over strains and inocula; format: cell-based; settings: two inocula, two strains
# Description: (§1) The objective of this study is to assess in vitro the time-killing curves of oxyclozanide against four strains of Methicillin-Resistant Staphylococcus from dogs.
# (§2) Two Methicillin-Resistant Staphylococcus aureus (MRSA) and two Methicillin-Resistant Staphylococcus pseudintermedius (MRSP) isolated from the clinics have been tested.
# (§3) The assessment of time-killing curves has been realized by a broth macrodilution method (Mueller-Hinton II Broth).
# [2] = system: Methicillin-Resistant Staphylococcus aureus (MRSA); test: as above; format: cell-based; settings: two inocula, two strains
# Description: as §1, §2, §3
# [3] = system: Methicillin-Resistant Staphylococcus pseudintermedius (MRSP) 16125, 16127; test: Oxyclo MIC of MRSP strains; format: cell-based
# MRSA 16110 [4] = test: Time-killing curve, inoculum 10^6 CFU/ml (MIC 1 μg/ml); format: cell-based, Staphylococcus aureus
# Protocol: as §1, §2, §3
# (§4) Oxyclozanide is diluted in (DMSO) into sterile tubes in order to obtain the following concentrations from 800 to 6.25 μg/ml. Those concentrations and stock standard solution are then diluted (1/10) in Mueller-Hinton II Broth in order to obtain the following concentrations from […] (See Table 2).
# (§5) Each operation is performed under sterile conditions. Each working standard solution (10*the final active ingredient concentration) is distributed in tubes (1 ml, for a final volume of 10 ml after addition of 9 ml of inoculum). One tube without active ingredient is used as growth control (Concentration=0).
# (§6) Bacterial isolates are sub-cultured from one cryobead on Columbia agar supplemented with 5% of blood. Pure cultures are incubated during 18-24 hours at 37° C. Three to five isolated colonies of similar appearance are selected from a previous culture and transferred into tubes containing 9 ml of Mueller-Hinton II Broth. The broth is incubated during 12-18 hours at 37° C. 0.5 to 1 ml of this broth is inoculated to another Mueller-Hinton II Broth 9 ml tube which is incubated during 3 to 4 hours at 37° C. to reach the exponential growth phase. The bacterial inoculum grown exponential phase is suspended to an optical density of McFarland standard scale 0.5 equivalent to a bacterial density of 10^8 CFU/ml and then adjusted to a concentration of about 5.10^5 CFU/ml as indicated by the guideline CLSI M26-A and to a second inoculum tested: 10^6 CFU/ml.
# (§7) 9 ml of bacterial inoculum grown to exponential phase is added to 1 ml of active ingredient (or Mueller Hinton II Broth for the growth control). Tubes are incubated at 35° C. during 24 hours.
# (§8) At times 0, 2, 4, 6 and 24 hours, 100 μl of broth of each tube is sampled and diluted in microplates:
# (§9) Each well is re-cultured by streaking 10 μl on Columbia agar supplemented with 5% of blood. Plates are incubated at 37° C. during 18-24 hours incubation. Thus, residual bacterial concentrations are determined (CFU/ml). Results are expressed in log10 values of CFU/ml over-time in broth. Due to the procedure used, the minimal bacterial concentration that can be assessed is 10^2 CFU/ml.
# MRSA 16110 [5] = test: Time-killing curve, inoculum 5.10^5 CFU/ml (MIC 1 μg/ml); format: cell-based, Staphylococcus aureus
# Protocol: as §1, §2, §3, §4, §5, §6, §7, §8, §9
smiles,measurement,setting,value
O=C(Nc1cc(Cl)cc(Cl)c1O)c1c(O)c(Cl)cc(Cl)c1Cl [Oxyclozanide],Concentrations with concentration-dependent bactericidal effect,[1],>= 2 MIC
same,Concentrations with concentration-dependent bactericidal effect,[2],>= 2 MIC
same,MIC,[3]; MRSP 16125,0.5 µg/mL
same,MIC,[3]; MRSP 16127,0.25 µg/mL
same,Counting results,"MRSA 16110 [4]; 1 MIC, 0 h",2.000E+06 CFU/ml
same,Counting results,"MRSA 16110 [4]; 1 MIC, 2 h",8.300E+04 CFU/ml
same,Counting results,"MRSA 16110 [4]; 1 MIC, 4 h",3.400E+04 CFU/ml
same,Counting results,"MRSA 16110 [4]; 1 MIC, 6 h",3.500E+03 CFU/ml
same,Counting results,"MRSA 16110 [4]; 1 MIC, 24 h",7.900E+06 CFU/ml
same,Counting results,"MRSA 16110 [4]; 2 MIC, 0 h",2.000E+06 CFU/ml
same,Counting results,"MRSA 16110 [4]; 2 MIC, 2 h",4.000E+02 CFU/ml
same,Counting results,"MRSA 16110 [4]; 2 MIC, 4 h",2.000E+02 CFU/ml
same,Counting results,"MRSA 16110 [4]; 2 MIC, 6 h",1.000E+02 CFU/ml
same,Counting results,"MRSA 16110 [4]; 2 MIC, 24 h",1.000E+02 CFU/ml
same,Counting results,"MRSA 16110 [4]; 4 MIC, 0 h",2.000E+06 CFU/ml
same,Counting results,"MRSA 16110 [4]; 4 MIC, 2 h",1.000E+02 CFU/ml
same,Counting results,"MRSA 16110 [4]; 4 MIC, 4 h",1.000E+02 CFU/ml
same,Counting results,"MRSA 16110 [4]; 4 MIC, 6 h",1.000E+02 CFU/ml
same,Counting results,"MRSA 16110 [4]; 4 MIC, 24 h",1.000E+02 CFU/ml
same,Counting results,"MRSA 16110 [4]; 8 MIC, 0 h",2.000E+06 CFU/ml
same,Counting results,"MRSA 16110 [4]; 8 MIC, 2 h",1.000E+02 CFU/ml
same,Counting results,"MRSA 16110 [4]; 8 MIC, 4 h",1.000E+02 CFU/ml
same,Counting results,"MRSA 16110 [4]; 8 MIC, 6 h",1.000E+02 CFU/ml
same,Counting results,"MRSA 16110 [4]; 8 MIC, 24 h",1.000E+02 CFU/ml
same,Counting results,"MRSA 16110 [4]; 16 MIC, 0 h",2.000E+06 CFU/ml
same,Counting results,"MRSA 16110 [4]; 16 MIC, 2 h",2.000E+02 CFU/ml
same,Counting results,"MRSA 16110 [4]; 16 MIC, 4 h",1.000E+02 CFU/ml
same,Counting results,"MRSA 16110 [4]; 16 MIC, 6 h",1.000E+02 CFU/ml
same,Counting results,"MRSA 16110 [4]; 16 MIC, 24 h",1.000E+02 CFU/ml
same,Time to obtain bactericidal effect at 4 MIC,"MRSA 16110 [4]; 16110/10^6 CFU/ml, >=3 log10 decrease in CFU",2 h
same,Counting results,"MRSA 16110 [4]; ¼ MIC, 0 h",2.000E+06 CFU/ml
same,Counting results,"MRSA 16110 [4]; ¼ MIC, 2 h",8.000E+06 CFU/ml
same,Counting results,"MRSA 16110 [4]; ¼ MIC, 4 h",4.000E+07 CFU/ml
same,Counting results,"MRSA 16110 [4]; ¼ MIC, 6 h",2.400E+07 CFU/ml
same,Counting results,"MRSA 16110 [4]; ¼ MIC, 24 h",4.100E+07 CFU/ml
same,Counting results,"MRSA 16110 [4]; ½ MIC, 0 h",2.000E+06 CFU/ml
same,Counting results,"MRSA 16110 [4]; ½ MIC, 2 h",6.900E+05 CFU/ml
same,Counting results,"MRSA 16110 [4]; ½ MIC, 4 h",4.300E+06 CFU/ml
same,Counting results,"MRSA 16110 [4]; ½ MIC, 6 h",4.800E+07 CFU/ml
same,Counting results,"MRSA 16110 [4]; ½ MIC, 24 h",3.700E+07 CFU/ml
same,Counting results,"MRSA 16110 [5]; 1 MIC, 0 h",4.100E+05 CFU/ml
same,Counting results,"MRSA 16110 [5]; 1 MIC, 2 h",9.300E+04 CFU/ml
same,Counting results,"MRSA 16110 [5]; 1 MIC, 4 h",6.500E+04 CFU/ml
same,Counting results,"MRSA 16110 [5]; 1 MIC, 6 h",1.100E+05 CFU/ml
same,Counting results,"MRSA 16110 [5]; 1 MIC, 24 h",6.100E+05 CFU/ml
same,Counting results,"MRSA 16110 [5]; 2 MIC, 0 h",4.100E+05 CFU/ml
same,Counting results,"MRSA 16110 [5]; 2 MIC, 2 h",3.300E+03 CFU/ml
same,Counting results,"MRSA 16110 [5]; 2 MIC, 4 h",1.800E+03 CFU/ml
same,Counting results,"MRSA 16110 [5]; 2 MIC, 6 h",4.000E+02 CFU/ml
same,Counting results,"MRSA 16110 [5]; 2 MIC, 24 h",1.000E+02 CFU/ml
same,Counting results,"MRSA 16110 [5]; 4 MIC, 0 h",4.100E+05 CFU/ml
same,Counting results,"MRSA 16110 [5]; 4 MIC, 2 h",3.000E+02 CFU/ml
same,Counting results,"MRSA 16110 [5]; 4 MIC, 4 h",1.000E+02 CFU/ml
same,Counting results,"MRSA 16110 [5]; 4 MIC, 6 h",1.000E+02 CFU/ml
same,Counting results,"MRSA 16110 [5]; 4 MIC, 24 h",1.000E+02 CFU/ml
same,Counting results,"MRSA 16110 [5]; 8 MIC, 0 h",4.100E+05 CFU/ml
same,Counting results,"MRSA 16110 [5]; 8 MIC, 2 h",2.000E+02 CFU/ml
same,Counting results,"MRSA 16110 [5]; 8 MIC, 4 h",1.000E+02 CFU/ml
same,Counting results,"MRSA 16110 [5]; 8 MIC, 6 h",1.000E+02 CFU/ml
same,Counting results,"MRSA 16110 [5]; 8 MIC, 24 h",1.000E+02 CFU/ml
same,Counting results,"MRSA 16110 [5]; 16 MIC, 0 h",4.100E+05 CFU/ml
same,Counting results,"MRSA 16110 [5]; 16 MIC, 2 h",1.000E+02 CFU/ml
same,Counting results,"MRSA 16110 [5]; 16 MIC, 4 h",1.000E+02 CFU/ml
same,Counting results,"MRSA 16110 [5]; 16 MIC, 6 h",1.000E+02 CFU/ml
same,Counting results,"MRSA 16110 [5]; 16 MIC, 24 h",1.000E+02 CFU/ml
same,Time to obtain bactericidal effect at 4 MIC,"MRSA 16110 [5]; 16110/5.10^5 CFU/ml, >=3 log10 decrease in CFU",2 h
same,Counting results,"MRSA 16110 [5]; ¼ MIC, 0 h",4.100E+05 CFU/ml
same,Counting results,"MRSA 16110 [5]; ¼ MIC, 2 h",1.400E+06 CFU/ml
same,Counting results,"MRSA 16110 [5]; ¼ MIC, 4 h",9.500E+07 CFU/ml
same,Counting results,"MRSA 16110 [5]; ¼ MIC, 6 h",1.600E+08 CFU/ml
same,Counting results,"MRSA 16110 [5]; ¼ MIC, 24 h",1.100E+09 CFU/ml
same,Counting results,"MRSA 16110 [5]; ½ MIC, 0 h",4.100E+05 CFU/ml
same,Counting results,"MRSA 16110 [5]; ½ MIC, 2 h",6.300E+05 CFU/ml
same,Counting results,"MRSA 16110 [5]; ½ MIC, 4 h",9.900E+06 CFU/ml
same,Counting results,"MRSA 16110 [5]; ½ MIC, 6 h",3.100E+07 CFU/ml
same,Counting results,"MRSA 16110 [5]; ½ MIC, 24 h",1.900E+08 CFU/ml
